Columns and labels:
HSA = HSA (Homo sapiens, UniProt P02768); assay: Incubation with HSA followed by size-exclusion chromatography (Sephadex G-25); type: binding; settings: incubation of only a few seconds with HSA (or blood plasma), mole ratio 1:1, Sephadex G-25
[1] = target: T1, human serum albumin (HSA) (Homo sapiens, UniProt P02768); assay: Binding constant relative to HSA as stated in text
T1 construct: purchased Dessau company, Germany
Description: Thus BC-DOX1, after being brought into contact with HSA or after injection into the bloodstream, is tightly bound to that blood protein. Since BC-DOX1 in addition has a sulfonylhydrazone bond as an acid-labile bond between the carrier-molecule-affinitive substance and the cytostatic agent, in the acid environment of tumor tissue or in the acid intracellular compartments of the tumor cell, doxorubicin is released as the active substance so it can exert its therapeutic effect there.

transferrin = transferrin (Homo sapiens, UniProt P02787); assay: Incubation with transferrin followed by size-exclusion chromatography (Sephadex G-25); type: binding
[2] = target: T1, human serum albumin (HSA); assay: Binding constants relative to HSA by equilibrium dialysis (Scatchard plot); settings: pH 7.4, Scatchard plot
Description: A Scatchard plot is used to determine the binding constants relative to human serum albumin (HSA from the Dessau company, Germany) at pH 7.4 by means of equilibrium dialysis (equilibrium dialyzer from Spectrum, Inc., USA; dialysis membrane: cut-off MW 10000) for the prepared doxorubicin derivatives, all including an acid-labile hydrazone bond as the predetermined breaking point, and for doxorubicin.

[3] = target: T1, human serum albumin (HSA); settings: Literature value (Demant et al., Biochemical Pharmacology 55, 27-32, 1998); cited from earlier work

T1 sequence (P02768 25-609): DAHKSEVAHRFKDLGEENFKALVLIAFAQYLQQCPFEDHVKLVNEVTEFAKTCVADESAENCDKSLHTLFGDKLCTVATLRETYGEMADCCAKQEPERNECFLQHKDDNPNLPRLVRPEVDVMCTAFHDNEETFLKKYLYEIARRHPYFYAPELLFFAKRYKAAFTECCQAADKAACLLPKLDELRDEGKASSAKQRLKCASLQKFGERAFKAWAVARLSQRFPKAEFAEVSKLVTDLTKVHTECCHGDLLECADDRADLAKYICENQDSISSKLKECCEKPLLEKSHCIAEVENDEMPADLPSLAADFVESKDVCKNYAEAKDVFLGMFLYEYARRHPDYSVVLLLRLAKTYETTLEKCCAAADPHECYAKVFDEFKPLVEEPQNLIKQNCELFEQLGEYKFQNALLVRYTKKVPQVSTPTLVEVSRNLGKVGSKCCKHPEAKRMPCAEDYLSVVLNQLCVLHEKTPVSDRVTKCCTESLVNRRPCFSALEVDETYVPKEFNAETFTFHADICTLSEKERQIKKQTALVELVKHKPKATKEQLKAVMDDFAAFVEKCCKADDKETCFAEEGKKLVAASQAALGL
Sequence of HSA (P02768 25-609): as above
Sequence of transferrin (P02787 20-698, species assumed): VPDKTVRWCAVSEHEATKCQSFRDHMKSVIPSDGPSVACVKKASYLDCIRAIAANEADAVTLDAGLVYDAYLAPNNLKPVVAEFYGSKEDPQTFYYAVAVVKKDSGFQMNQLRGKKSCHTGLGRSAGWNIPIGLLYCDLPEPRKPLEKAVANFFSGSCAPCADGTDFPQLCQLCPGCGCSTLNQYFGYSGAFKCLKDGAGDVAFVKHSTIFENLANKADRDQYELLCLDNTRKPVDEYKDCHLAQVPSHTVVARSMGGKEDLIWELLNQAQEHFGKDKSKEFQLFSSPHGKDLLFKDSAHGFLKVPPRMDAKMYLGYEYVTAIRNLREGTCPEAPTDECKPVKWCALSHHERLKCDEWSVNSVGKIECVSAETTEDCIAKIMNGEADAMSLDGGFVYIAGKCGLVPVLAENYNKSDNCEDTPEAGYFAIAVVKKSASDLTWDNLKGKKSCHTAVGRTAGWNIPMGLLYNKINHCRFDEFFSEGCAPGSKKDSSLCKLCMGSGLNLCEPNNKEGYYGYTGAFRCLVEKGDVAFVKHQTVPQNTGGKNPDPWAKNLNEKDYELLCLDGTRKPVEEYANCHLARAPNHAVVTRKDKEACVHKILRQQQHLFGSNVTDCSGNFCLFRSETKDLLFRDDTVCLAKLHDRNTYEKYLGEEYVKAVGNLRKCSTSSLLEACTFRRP

SMILES | behavior in size-exclusion chromatography after incubation with HSA (HSA) | KA relative to HSA [2] | other results
COc1cccc2c1C(=O)c1c(O)c3c(c(O)c1C2=O)C[C@@](O)(/C(CO)=N/NS(=O)(=O)c1ccccc1/C(=C1/C=C(Br)C(=O)C(Br)=C1C)c1cc(Br)c(O)c(Br)c1C)C[C@@H]3O[C@H]1CC(N)[C@H](O)C(C)O1 (stereo partly drawn) [BC-DOX1] | behavior like that of bromcresol green or bromcresol green sulfonic acid | – | binding constant relative to human serum albumin compared with free doxorubicin [1]: several orders of magnitude greater
Cc1c(C2(c3cc(Br)c(O)c(Br)c3C)OS(=O)(=O)c3ccccc32)cc(Br)c(O)c1Br [Bromcresol green, reference compound] | elute together with HSA | – | affinity for other plasma proteins (transferrin): do not exhibit high affinity
COc1cccc2c1C(=O)c1c(O)c3c(c(O)c1C2=O)C[C@](O)(/C(CO)=N/NC(=O)CCOCCOCCOCCOCCOCCOCCNS(=O)(=O)c1ccc2c(N=Nc4ccccc4)c(O)ccc2c1)C[C@@H]3O[C@H]1CC(N)[C@H](O)C(C)O1 (stereo partly drawn) [DOXO-CROC-HEXA] | – | 7.2 × 10^7 | –
CCCCCCCCCCCCCCCCCC(=O)N/N=C(\CO)[C@@]1(O)Cc2c(O)c3c(c(O)c2[C@@H](O[C@H]2CC(N)[C@H](O)C(C)O2)C1)C(=O)c1c(OC)cccc1C3=O (stereo partly drawn) [DOXO-SAH] | – | 6.1 × 10^6 | –
COc1cccc2c1C(=O)c1c(O)c3c(c(O)c1C2=O)C[C@](O)(/C(CO)=N/NC(=O)CCOCCOCCOCCOCCOCCOCCNC(=O)c1cc(I)cc(I)c1I)C[C@H]3O[C@H]1CC(N)[C@H](O)C(C)O1 (stereo partly drawn) [DOXO-TIB-HEXA] | – | 5.5 × 10^5 | –
COc1cccc2c1C(=O)c1c(O)c3c(c(O)c1C2=O)C[C@@](O)(C(=O)CO)C[C@@H]3O[C@H]1C[C@H](N)[C@H](O)[C@H](C)O1 [Doxorubicin, doxorubicin, reference compound] | – | 2.9 × 10^3 | KA relative to HSA, literature value [3]: 2.7 × 10^3
